Earlier results in patent publication US11874283B2, “Method and compositions for the treatment and detection of endothelin-1 related kidney diseases” (MOREHOUSE SCHOOL OF MEDICINE, priority 2010, dated 2024).
Ends that are not written are not given here.

Test system: ET-1 ELISA
Conditions: as determined by the manufacturer
For “ET-2: endothelin peptide cross-reacting in the ET-1 ELISA (CSCSSWLDKECVYFCHLDIIW; ends and bridges not checked; cysteine pairing not given here; UniProt P20800 49-69, looked up)”, the Cross reactivity is given as 45%. In the case of “ET-3: endothelin peptide cross-reacting in the ET-1 ELISA (CTCFTYKDKECVYYCHLDIIW; ends and bridges not checked; cysteine pairing not given here; UniProt P14138 97-117, looked up)”, the Cross reactivity is given as 14%. For “big ET-1: biologically inactive 38-amino acid precursor of ET-1 (CSCSSLMDKECVYFCHLDIIWVNTPEHVVPYGLGSPRS; ends and bridges not checked; cysteine pairing not given here; UniProt P05305 53-90, looked up)”, the Cross reactivity is listed as “less than 1%”.
